Data on four compounds can be found in paper PMC10634366 (Microbiology, 2023).

By inhibition is commonly meant the relative decrease from the control value, in per cent.

SMILES strings stand for the structures.

Test [1] concerns the target T1, Asuc_0142 (DcuAAs) (Actinobacillus succinogenes, UniProt A6VKM5).
T1 construct: full-length gene from 130Z genomic DNA in pBAD30-derived pMB61 (pMB147), expressed in E. coli IMW529 lacking DcuA, DcuB, DcuC, TtdT and CitT
Nature of the test: inhibition of […] min […]fumarate uptake, E. coli IMW529 cells. It counts as cell-based. Conditions: read-out: % inhibition at 1 mM.

Test [2] addresses T1, Asuc_0142 (DcuAAs). The test is described as above. It counts as cell-based. Conditions: 100 µM [14C]fumarate; anaerobic, pH 7, 37 °C.

Turning to `N[C@@H](CC(=O)O)C(=O)O` [L-aspartate], on Asuc_0142 (DcuAAs) [1], the inhibition at 1000 µM was found to be 95%. Consider `O=C(O)CCC(=O)O` [succinate], for which the “% inhibition at 1 mM” value on Asuc_0142 (DcuAAs) [2] was “the inhibition by succinate and L-malate was only moderate”. On to `O=C(O)/C=C/C(=O)O` [fumarate], for which the inhibition at 1000 µM on Asuc_0142 (DcuAAs) [1] worked out at 82%.

Regarding `O=C(O)C[C@H](O)C(=O)O` [L-malate], the “% inhibition at 1 mM” value at Asuc_0142 (DcuAAs) [2] was “the inhibition by succinate and L-malate was only moderate”.
